The supplement of paper PMC4862054

Tests used:
Assay in all cases: normalised response (% of control), CellTox Green; higher = less cell death (100 = DMSO, 0 = benzethonium chloride kill control)
Conditions in all cases: incubation time: 72 h
CAL-148 = test system: CAL-148
Procedure, shortened: (§1)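 Two readouts were taken after 72 h: CellTox Green fluorescence (485/520 nm) first, then CellTiter-Glo luminescence after 10 min at room temperature. Breast cancer cell lines had been seeded as 20 µl suspension into 384-well plates holding compound at 5 concentrations in 10-fold steps across a compound-specific 10,000-fold range. Each value is a normalised signal at a single concentration, with plates scaled to 0.1 % DMSO (100) and a positive kill control (0).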

HCC1599 = test system: HCC1599
Procedure, shortened: as §1

MDA-MB-468 = test system: MDA-MB-468
Procedure, shortened: as §1

DU-4475 = test system: DU-4475
Procedure, shortened: as §1

MDA-MB-436 = test system: MDA-MB-436
Procedure, shortened: as §1

BT-474 = test system: BT-474
Procedure, shortened: as §1

MDA-MB-231 = test system: MDA-MB-231
Procedure, shortened: as §1

MDA-MB-453 = test system: MDA-MB-453
Procedure, shortened: as §1

BT-549 = test system: BT-549
Procedure, shortened: as §1

MCF-10A = test system: MCF-10A
Procedure, shortened: as §1

HCC1937 = test system: HCC1937
Procedure, shortened: as §1

CAL-85-1 = test system: CAL-85-1
Procedure, shortened: as §1

Hs578T = test system: Hs578T
Procedure, shortened: as §1

HCC1143 = test system: HCC1143
Procedure, shortened: as §1

MFM-223 = test system: MFM-223
Procedure, shortened: as §1

CAL-120 = test system: CAL-120
Procedure, shortened: as §1

HDQ-P1 = test system: HDQ-P1
Procedure, shortened: as §1

CAL-51 = test system: CAL-51
Procedure, shortened: as §1

Compound | normalised response (CAL-148) | normalised response (HCC1599) | normalised response (MDA-MB-468) | normalised response (DU-4475) | normalised response (MDA-MB-436) | normalised response (BT-474) | normalised response (MDA-MB-231) | normalised response (MDA-MB-453) | normalised response (BT-549) | normalised response (MCF-10A) | normalised response (HCC1937) | normalised response (CAL-85-1) | normalised response (Hs578T) | normalised response (HCC1143) | normalised response (MFM-223) | normalised response (CAL-120) | normalised response (HDQ-P1) | normalised response (CAL-51)
CO[C@H]1/C=C\C=C(/C)C(=O)NC2=CC(=O)C(NCCN(C)C)=C(C[C@@H](C)C[C@H](OC)[C@H](O)[C@@H](C)/C=C(\C)[C@@H]1OC(N)=O)C2=O [Alvespimycin] (100 nM) | 48.7% | 107% | 104% | 68.1% | 89.6% | 76.6% | 67.9% | 91.4% | 130% | 33.3% | 118% | 71.6% | 101% | 69.1% | 89.6% | 95% | 75.2% | 60.4%
CO[C@H]1/C=C\C=C(/C)C(=O)NC2=CC(=O)C(NCCN(C)C)=C(C[C@@H](C)C[C@H](OC)[C@H](O)[C@@H](C)/C=C(\C)[C@@H]1OC(N)=O)C2=O [Alvespimycin] (1000 nM) | 45.8% | 104% | 34.9% | 79.2% | 106% | 61.3% | 33% | 82.7% | 107% | 23.5% | 34.5% | 33.3% | -33.1% | -15.9% | 86.5% | 87.5% | 80% | 69.6%
CCC1(c2ccc(N)cc2)CCC(=O)NC1=O (stereo not drawn) [Aminoglutethimide] (1000 nM) | 104% | 96.2% | 177% | 99.2% | 98.2% | 102% | 76.7% | 101% | 117% | 109% | 97.3% | 105% | 71.8% | 106% | 97.6% | 99.8% | 104% | 83.5%
CCC1(c2ccc(N)cc2)CCC(=O)NC1=O (stereo not drawn) [Aminoglutethimide] (10000 nM) | 97% | 101% | 69% | 95.9% | 91.5% | 90% | 112% | 96.9% | 104% | 102% | 110% | 89.5% | 127% | 59.1% | 102% | 99.7% | 107% | 115%
COc1cc2nccc(Oc3ccc(NC(=O)C4(C(=O)Nc5ccc(F)cc5)CC4)cc3)c2cc1OC [Cabozantinib] (1000 nM) | 96.9% | 94.5% | 158% | 96.9% | 87.1% | 98.4% | 97.1% | 101% | 105% |  | 102% | 104% | 70.1% | 108% | 93.8% | 98.6% | 65.3% | 82.7%
C[C@@H](Oc1cc(-c2cnn(C3CCNCC3)c2)cnc1N)c1c(Cl)ccc(F)c1Cl [Crizotinib] (1000 nM) | 97.2% | 111% | 123% | 107% | 57.6% | 98.9% | 115% | 98.3% | 131% | 95.9% | 87% | 76.1% | 103% | 131% | 78.6% | 102% | 72.7% | 83.6%
Cc1ccc(-n2nc(C(C)(C)C)cc2NC(=O)Nc2ccc(OCCN3CCOCC3)c3ccccc23)cc1 [Doramapimod] (1000 nM) | 104% | 83.8% | 122% | 95.2% | 87.7% | 97.6% | 102% | 105% | 93.2% | 101% | 109% | 113% | 82.6% | 104% | 100% | 96.1% | 89.6% | 101%
O=P1(NCCCl)OCCCN1CCCl (stereo not drawn) [Ifosfamide] (1000 nM) | 100% | 98.7% | 139% | 95.8% | 58.7% | 98.2% | 96.2% | 107% | 107% | 90% | 70.1% | 100% | 89.2% | 107% | 94.9% | 99.5% | 67.6% | 95.4%
CC1(C)NC(=O)N(c2ccc([N+](=O)[O-])c(C(F)(F)F)c2)C1=O [Nilutamide] (1000 nM) | 92% | 107% | 115% | 103% | 103% | 102% | 115% | 94% | 123% | 115% | 98% | 103% | 100% | 72.8% | 95.9% | 101% | 88.5% | 103%
CC1(C)NC(=O)N(c2ccc([N+](=O)[O-])c(C(F)(F)F)c2)C1=O [Nilutamide] (10000 nM) | 101% | 102% | 115% | 104% | 102% | 98.8% | 105% | 97.3% | 107% | 79.5% | 92.1% | 83.5% | 102% |  | 96.2% | 101% | 98.1% | 102%
